Measurements reported in ChEMBL document CHEMBL1201862, “PubChem BioAssay data set” (2004).
Calls of active or inactive are those of the source.

Experiments:
[1] = molecular target: T1, Mannose-6-phosphate isomerase (Homo sapiens, UniProt P34949); test: human PMI inhibitors, high substrate, primary screen, biochemical, fluorescence intensity, high mannose 6-phosphate (AID 1220)
T1 sequence (P34949 whole entry): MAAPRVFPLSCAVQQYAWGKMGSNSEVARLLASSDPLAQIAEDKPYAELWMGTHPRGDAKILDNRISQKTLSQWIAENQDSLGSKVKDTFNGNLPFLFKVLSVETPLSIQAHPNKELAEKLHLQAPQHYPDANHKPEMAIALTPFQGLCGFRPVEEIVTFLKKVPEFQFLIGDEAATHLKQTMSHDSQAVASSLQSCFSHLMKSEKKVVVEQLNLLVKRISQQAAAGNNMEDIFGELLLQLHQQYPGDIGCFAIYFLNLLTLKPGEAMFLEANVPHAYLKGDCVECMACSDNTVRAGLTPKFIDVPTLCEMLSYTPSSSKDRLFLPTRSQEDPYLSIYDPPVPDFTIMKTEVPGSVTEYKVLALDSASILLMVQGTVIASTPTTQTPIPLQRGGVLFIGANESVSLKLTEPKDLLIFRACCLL

Cytochrome P450 2D6 = Cytochrome P450 2D6 (Homo sapiens, UniProt P10635);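 also: CYP2D6 member of a cytochrome P450 panel assay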
Chain of Cytochrome P450 2D6 (P10635 whole entry): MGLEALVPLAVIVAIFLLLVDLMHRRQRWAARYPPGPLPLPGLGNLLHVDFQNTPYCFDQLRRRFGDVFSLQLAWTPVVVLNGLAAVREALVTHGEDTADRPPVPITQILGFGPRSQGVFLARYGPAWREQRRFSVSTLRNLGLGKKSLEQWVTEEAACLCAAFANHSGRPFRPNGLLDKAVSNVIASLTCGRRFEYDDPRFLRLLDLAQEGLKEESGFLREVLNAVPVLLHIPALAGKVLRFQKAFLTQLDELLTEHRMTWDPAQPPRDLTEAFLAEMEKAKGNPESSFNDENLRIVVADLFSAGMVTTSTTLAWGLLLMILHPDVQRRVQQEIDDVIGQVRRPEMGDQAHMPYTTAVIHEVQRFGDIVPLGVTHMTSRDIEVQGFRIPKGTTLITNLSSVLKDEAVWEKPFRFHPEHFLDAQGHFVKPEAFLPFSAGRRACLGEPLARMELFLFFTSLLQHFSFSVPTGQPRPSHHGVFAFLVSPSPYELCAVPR

Cytochrome P450 3A4 = Cytochrome P450 3A4 (Homo sapiens, UniProt P08684);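 also: CYP3A4 tested as one member of a cytochrome P450 panel screen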
Chain of Cytochrome P450 3A4 (P08684 whole entry): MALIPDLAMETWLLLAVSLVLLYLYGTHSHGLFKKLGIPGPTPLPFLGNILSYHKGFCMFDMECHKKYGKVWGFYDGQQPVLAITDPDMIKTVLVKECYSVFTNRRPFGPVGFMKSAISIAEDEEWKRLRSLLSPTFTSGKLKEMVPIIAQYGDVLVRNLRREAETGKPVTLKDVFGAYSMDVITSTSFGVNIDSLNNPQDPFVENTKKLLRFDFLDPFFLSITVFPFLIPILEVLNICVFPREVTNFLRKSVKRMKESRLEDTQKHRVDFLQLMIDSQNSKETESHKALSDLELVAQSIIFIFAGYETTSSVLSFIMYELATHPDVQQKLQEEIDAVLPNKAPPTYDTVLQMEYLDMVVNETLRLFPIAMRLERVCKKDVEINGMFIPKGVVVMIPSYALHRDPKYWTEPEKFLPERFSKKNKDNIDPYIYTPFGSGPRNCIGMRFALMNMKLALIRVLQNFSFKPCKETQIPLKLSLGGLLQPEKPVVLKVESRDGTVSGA

Cytochrome P450 2C9 = Cytochrome P450 2C9 (Homo sapiens, UniProt P11712)
Chain of Cytochrome P450 2C9 (P11712 whole entry): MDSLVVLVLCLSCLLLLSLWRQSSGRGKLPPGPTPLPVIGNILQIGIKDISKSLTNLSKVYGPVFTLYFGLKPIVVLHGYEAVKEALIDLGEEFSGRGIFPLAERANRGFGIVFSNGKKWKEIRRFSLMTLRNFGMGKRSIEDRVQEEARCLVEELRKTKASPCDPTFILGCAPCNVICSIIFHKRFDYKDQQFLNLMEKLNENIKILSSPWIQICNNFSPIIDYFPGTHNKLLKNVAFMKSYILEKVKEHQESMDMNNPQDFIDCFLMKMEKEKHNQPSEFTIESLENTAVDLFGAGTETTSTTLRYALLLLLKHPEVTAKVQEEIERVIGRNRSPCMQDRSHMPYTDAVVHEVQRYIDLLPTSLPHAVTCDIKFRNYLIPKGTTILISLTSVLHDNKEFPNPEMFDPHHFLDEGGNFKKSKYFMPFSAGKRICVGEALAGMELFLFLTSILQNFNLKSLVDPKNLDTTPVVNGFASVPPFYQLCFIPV

[2] = molecular target: DNA dC->dU-editing enzyme APOBEC-3A (Homo sapiens, UniProt P31941); test: Dose Response confirmation of small molecule APOBEC3A DNA Deaminase Inhibitors via a fluorescence-based single-stranded DNA deaminase assay. [Related pubchem assays (depositor defined):AID493011, AID493024]; type: functional
Chain of DNA dC->dU-editing enzyme APOBEC-3A (P31941 whole entry): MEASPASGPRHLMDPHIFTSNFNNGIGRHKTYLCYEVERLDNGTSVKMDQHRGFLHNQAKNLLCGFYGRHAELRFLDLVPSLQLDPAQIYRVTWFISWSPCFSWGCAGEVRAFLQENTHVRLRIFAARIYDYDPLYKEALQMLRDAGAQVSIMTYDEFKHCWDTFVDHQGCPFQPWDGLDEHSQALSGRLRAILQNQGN

[3] = molecular target: DNA dC->dU-editing enzyme APOBEC-3G (Homo sapiens, UniProt Q9HC16); type: functional;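 also: Dose-response counterscreen measuring inhibition of APOBEC3G DNA deaminase activity, run while confirming APOBEC3A inhibitors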
Chain of DNA dC->dU-editing enzyme APOBEC-3G (Q9HC16 whole entry): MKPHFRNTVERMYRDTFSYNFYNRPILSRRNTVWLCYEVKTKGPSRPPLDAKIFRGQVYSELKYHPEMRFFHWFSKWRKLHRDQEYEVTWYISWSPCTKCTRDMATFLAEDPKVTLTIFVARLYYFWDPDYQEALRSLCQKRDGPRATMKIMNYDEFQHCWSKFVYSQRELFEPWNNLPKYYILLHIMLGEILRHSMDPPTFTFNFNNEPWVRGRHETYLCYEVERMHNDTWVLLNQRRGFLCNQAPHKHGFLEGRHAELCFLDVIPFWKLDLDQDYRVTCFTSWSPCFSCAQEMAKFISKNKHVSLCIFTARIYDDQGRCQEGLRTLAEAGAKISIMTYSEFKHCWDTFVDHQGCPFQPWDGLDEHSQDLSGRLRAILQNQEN

Paired box protein Pax-8 = Paired box protein Pax-8 (Homo sapiens, UniProt Q06710); test: inhibitors of PAX8-driven TPO luciferase reporter, dose response, RMG-I cells, cherry-pick (AID 687027); type: functional, cell-based;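 also: luciferase reporter driven by Pax8 target thyroperoxidase promoter measured by SteadyGlo luminescence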
Chain of Paired box protein Pax-8 (Q06710 whole entry): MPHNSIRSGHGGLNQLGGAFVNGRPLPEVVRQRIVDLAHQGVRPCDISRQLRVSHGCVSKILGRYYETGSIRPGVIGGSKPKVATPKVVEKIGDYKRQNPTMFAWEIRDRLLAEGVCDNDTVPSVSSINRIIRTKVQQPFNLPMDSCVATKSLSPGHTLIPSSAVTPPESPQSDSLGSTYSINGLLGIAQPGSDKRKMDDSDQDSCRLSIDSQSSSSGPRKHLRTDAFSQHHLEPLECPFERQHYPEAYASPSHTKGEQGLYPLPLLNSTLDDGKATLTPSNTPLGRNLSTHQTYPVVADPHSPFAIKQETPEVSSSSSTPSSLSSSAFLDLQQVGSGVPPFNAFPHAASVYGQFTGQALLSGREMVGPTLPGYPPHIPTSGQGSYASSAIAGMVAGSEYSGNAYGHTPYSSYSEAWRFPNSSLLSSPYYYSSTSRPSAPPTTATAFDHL

[4] = cytotoxicity in OVCAR8 ovarian cancer cells, dose response, PAX8 project, cell-based, plate reader, dry powder samples (AID 743197); type: functional; conditions: OVCAR-8
Cytochrome P450 2C19 = Cytochrome P450 2C19 (Homo sapiens, UniProt P33261); test: Cytochrome panel assay with activity outcomes. Panel member name: p450-cyp2c19 Compounds with AC50 equal or less than 10 uM are considered active; type: functional; conditions: read-out: AC50
Chain of Cytochrome P450 2C19 (P33261 whole entry): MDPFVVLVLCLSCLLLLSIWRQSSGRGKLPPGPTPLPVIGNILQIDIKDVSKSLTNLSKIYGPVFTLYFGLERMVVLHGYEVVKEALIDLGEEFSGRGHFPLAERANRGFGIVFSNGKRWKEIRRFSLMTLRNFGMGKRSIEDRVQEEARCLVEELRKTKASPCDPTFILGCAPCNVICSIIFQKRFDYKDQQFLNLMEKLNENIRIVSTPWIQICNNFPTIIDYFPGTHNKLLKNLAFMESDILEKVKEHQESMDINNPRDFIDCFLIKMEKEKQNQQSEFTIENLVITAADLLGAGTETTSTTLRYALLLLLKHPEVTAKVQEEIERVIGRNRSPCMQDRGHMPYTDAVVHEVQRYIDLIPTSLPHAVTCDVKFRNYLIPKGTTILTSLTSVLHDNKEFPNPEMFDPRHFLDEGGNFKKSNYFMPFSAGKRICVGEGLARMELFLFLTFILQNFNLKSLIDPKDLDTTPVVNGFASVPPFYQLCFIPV

[5] = molecular target: T2, Polyadenylate-binding protein 1 (Homo sapiens, UniProt P11940); test: PABP1 MLLE–PAM2 interaction inhibitors, dose response, miRNA deadenylation inhibitor project, biochemical, fluorescence polarization, Cy5-PAM2 peptide, secondary (AID 602260); type: functional; conditions: read-out: IC50_Mean
T2 sequence (P11940 whole entry): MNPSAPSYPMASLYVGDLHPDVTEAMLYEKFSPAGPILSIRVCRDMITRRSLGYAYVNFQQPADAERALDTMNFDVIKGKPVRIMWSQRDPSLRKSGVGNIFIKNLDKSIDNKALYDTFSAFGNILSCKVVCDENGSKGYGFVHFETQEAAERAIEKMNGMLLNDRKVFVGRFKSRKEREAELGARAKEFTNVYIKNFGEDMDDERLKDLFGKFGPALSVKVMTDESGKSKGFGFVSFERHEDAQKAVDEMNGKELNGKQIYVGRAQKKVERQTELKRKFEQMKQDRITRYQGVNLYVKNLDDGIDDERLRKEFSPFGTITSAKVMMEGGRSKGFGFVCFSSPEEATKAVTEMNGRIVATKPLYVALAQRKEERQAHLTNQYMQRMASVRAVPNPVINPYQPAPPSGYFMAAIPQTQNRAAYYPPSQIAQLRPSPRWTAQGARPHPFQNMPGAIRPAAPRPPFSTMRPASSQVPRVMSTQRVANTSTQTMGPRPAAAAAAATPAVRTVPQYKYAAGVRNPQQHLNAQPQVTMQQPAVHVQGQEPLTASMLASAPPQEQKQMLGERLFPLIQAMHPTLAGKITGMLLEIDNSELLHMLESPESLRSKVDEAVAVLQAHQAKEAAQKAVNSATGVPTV

[6] = molecular target: T2, Polyadenylate-binding protein 1; test: PABP1 MLLE–PAM2 binding inhibitor potency, dose response, biochemical, fluorescence polarization, FITC-PAM2 peptide (AID 602259); type: functional; conditions: read-out: IC50_Mean
[7] = molecular target: T3, Histone-lysine N-methyltransferase NSD2 (Homo sapiens, UniProt O96028); type: biochemical
T3 sequence (O96028 whole entry): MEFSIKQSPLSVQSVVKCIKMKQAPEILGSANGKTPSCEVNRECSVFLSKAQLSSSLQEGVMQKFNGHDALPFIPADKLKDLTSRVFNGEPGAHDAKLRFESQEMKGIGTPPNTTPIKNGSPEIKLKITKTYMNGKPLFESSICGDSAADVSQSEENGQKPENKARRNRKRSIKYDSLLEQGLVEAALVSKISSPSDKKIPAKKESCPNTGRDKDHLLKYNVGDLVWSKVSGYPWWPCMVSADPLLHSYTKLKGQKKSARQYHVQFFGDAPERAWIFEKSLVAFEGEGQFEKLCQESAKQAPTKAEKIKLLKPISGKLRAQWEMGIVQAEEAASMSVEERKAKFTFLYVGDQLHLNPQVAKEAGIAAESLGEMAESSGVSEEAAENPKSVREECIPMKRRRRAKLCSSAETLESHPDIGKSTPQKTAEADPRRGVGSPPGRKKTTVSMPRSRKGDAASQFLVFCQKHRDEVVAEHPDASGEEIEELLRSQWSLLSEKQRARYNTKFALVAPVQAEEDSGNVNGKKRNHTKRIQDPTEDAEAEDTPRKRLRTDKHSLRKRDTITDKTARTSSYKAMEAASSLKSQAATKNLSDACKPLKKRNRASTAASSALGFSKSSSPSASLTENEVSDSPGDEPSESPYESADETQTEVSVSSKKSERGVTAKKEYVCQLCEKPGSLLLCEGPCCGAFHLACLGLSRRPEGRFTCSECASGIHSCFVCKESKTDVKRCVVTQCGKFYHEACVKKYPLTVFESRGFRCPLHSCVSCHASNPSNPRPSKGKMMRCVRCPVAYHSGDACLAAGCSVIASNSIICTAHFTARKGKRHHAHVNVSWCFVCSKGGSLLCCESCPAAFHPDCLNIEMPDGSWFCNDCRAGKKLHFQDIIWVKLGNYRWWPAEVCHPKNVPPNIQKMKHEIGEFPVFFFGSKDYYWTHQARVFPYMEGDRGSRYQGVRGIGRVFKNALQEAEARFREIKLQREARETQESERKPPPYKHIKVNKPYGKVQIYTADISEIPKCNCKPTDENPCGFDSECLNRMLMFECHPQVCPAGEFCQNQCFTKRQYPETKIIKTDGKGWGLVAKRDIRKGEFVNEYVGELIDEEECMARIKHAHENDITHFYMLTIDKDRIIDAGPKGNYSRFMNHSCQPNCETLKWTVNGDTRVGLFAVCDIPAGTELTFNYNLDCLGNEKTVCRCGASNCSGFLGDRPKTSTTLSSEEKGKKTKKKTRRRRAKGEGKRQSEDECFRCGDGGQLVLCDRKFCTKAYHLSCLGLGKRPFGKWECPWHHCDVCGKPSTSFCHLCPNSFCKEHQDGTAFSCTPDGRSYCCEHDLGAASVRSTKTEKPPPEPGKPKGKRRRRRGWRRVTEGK

[8] = molecular target: T4, Tyrosyl-DNA phosphodiesterase 2 (Homo sapiens, UniProt O95551); test: human TDP2 enzyme inhibitors, dose response, biochemical, epi absorbance, IC50 (AID 743297)
T4 sequence (O95551 whole entry): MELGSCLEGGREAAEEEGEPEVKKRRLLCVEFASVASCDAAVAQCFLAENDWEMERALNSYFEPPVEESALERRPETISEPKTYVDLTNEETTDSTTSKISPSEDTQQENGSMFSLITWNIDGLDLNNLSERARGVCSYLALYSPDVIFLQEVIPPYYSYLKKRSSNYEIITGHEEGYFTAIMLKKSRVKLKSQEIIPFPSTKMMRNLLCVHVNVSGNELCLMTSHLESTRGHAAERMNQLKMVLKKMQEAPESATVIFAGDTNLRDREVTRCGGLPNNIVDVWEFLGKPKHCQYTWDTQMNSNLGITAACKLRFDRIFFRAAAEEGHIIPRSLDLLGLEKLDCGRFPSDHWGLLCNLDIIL

[9] = inhibitors of intracellular T. cruzi replication, confirmation, NIH3T3 host cells, beta-gal luminescence (AID 2044); type: functional, cell-based;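 also: intracellular parasites grown in NIH/3T3 mouse fibroblasts as host cells; luminescent beta-galactosidase reporter signal from transgenic T. cruzi replicating inside host cells; inhibitors lower the luminescence signal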
[10] = cytotoxicity toward NIH3T3 fibroblasts, dose response, counter-screen, cell-based, ATP luminescence, mouse fibroblasts (AID 2010); type: functional;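 also: cells exposed to compound for about 90 hours before reading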
[11] = molecular target: FAD-linked sulfhydryl oxidase ALR (Homo sapiens, UniProt P55789); test: inhibitors of human ALR sulfhydryl oxidase, dose response, biochemical, H2O2 detection, luminescence, cherry-pick (AID 493248)
Chain of FAD-linked sulfhydryl oxidase ALR (P55789 whole entry): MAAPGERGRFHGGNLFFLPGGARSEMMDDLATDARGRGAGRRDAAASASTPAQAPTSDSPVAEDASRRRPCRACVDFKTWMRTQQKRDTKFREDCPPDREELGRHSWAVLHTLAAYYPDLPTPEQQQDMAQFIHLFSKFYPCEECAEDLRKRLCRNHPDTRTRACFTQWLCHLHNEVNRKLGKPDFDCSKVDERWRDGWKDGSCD

[12] = molecular target: T5, Replicative DNA helicase DnaB (Mycobacterium tuberculosis, UniProt P9WMR3); test: DnaB intein splicing inhibitors, dose response, biochemical, cell-free fluorescence (AID 449749); type: functional
T5 sequence (P9WMR3 whole entry): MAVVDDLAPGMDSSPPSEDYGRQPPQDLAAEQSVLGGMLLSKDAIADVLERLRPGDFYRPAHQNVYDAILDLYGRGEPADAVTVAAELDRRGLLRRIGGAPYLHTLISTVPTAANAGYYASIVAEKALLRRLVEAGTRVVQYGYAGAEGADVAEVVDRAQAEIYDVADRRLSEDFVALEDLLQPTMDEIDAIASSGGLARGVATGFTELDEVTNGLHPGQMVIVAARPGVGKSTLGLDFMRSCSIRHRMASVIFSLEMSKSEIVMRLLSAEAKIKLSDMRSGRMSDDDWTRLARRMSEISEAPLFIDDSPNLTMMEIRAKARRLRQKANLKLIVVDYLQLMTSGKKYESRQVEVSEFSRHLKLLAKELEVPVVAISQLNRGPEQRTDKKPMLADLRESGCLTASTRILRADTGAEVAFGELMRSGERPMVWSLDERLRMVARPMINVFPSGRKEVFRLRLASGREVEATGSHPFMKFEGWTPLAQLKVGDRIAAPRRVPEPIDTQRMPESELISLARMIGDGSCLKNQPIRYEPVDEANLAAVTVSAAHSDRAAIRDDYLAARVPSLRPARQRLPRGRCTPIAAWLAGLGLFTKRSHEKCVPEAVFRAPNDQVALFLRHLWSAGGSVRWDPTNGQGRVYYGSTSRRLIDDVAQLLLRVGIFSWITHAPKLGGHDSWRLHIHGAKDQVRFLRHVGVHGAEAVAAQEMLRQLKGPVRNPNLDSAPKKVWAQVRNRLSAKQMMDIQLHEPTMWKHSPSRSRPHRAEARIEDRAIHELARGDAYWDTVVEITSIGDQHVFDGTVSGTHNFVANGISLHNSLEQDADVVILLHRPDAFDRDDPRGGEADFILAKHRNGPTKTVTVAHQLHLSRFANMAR

Protein RecA = molecular target: T6, Protein RecA (Mycobacterium tuberculosis, UniProt P9WHJ3); test: Fluorescence Cell-Free Homogeneous Dose Retest to Identify Inhibitors of RecA-Intein Splicing Activity. [Related pubchem assays (depositor defined):AID2097, AID2223, AID489010, AID492950]; type: functional
T6 sequence (P9WHJ3 whole entry): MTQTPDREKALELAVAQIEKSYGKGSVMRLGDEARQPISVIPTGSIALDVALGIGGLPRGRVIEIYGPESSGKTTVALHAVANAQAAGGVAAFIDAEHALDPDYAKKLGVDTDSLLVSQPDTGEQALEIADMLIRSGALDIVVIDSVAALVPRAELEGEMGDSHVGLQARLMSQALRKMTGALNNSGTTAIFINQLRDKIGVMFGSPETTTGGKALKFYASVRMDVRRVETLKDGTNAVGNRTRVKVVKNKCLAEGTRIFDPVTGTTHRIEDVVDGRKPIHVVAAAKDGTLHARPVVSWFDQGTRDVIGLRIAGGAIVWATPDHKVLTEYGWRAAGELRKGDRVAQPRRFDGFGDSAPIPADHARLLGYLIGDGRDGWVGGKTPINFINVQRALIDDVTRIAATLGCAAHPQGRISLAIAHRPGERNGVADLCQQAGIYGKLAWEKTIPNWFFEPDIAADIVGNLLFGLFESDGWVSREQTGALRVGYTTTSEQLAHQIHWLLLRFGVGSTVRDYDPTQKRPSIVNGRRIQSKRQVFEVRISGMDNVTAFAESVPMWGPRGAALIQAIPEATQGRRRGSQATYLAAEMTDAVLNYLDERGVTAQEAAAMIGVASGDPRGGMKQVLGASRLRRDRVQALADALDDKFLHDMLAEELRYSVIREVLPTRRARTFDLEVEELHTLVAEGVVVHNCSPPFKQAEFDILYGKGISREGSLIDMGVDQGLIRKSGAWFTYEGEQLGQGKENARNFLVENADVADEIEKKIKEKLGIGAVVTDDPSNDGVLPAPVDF

With `O=[N+]([O-])c1cc2c(cc1/C=N/c1ccccc1)OCO2` the IC50 [1] was > 50 µM (not active), the AC50 (Cytochrome P450 2D6) was 25.1 µM (inconclusive) and the AC50 (Cytochrome P450 3A4) was 20 µM (inconclusive). The AC50 (Cytochrome P450 2C9) was 10 µM (inconclusive).

For `CCOCc1cnc(C)nc1NCC(=O)c1c(C)[nH]c2cc(C)ccc12`, the IC50 [2] was 4.29 µM (active) and the IC50 [3] was 4.04 µM (active).

For `C[C@@H]1CCCCO[C@H](CN(C)Cc2ccc(C(F)(F)F)cc2)[C@@H](C)CN([C@@H](C)CO)C(=O)c2cc(NS(=O)(=O)c3ccc(Cl)cc3)ccc2O1`, the AC50 (Paired box protein Pax-8) was 6.82 µM (active) and the AC50 [4] was 40.7 µM (active).

In the case of `CC1=CC(=Nc2c(C)n(C)n(-c3ccccc3)c2=O)C=C(C)C1=O`, the IC50 [1] is reported as 13.2 µM (active).

In the case of `CCCC[N+]12CCC(CC1)C(C(=O)c1cccs1)C2` (stereo unspecified), the IC50 [2] is reported as 2.42 µM (active), the IC50 [3] is reported as 2.56 µM (active) and the AC50 (Cytochrome P450 2C19) is reported as 39.8 µM (inconclusive). The AC50 (Cytochrome P450 2C9) was 10 µM (inconclusive).

With `CC(C)C(NC(=O)COc1ccc2ccccc2c1)C(=O)N/N=C/C=C/c1ccccc1` (stereo unspecified) the IC50 [2] was 3.22 µM (active) and the IC50 [3] was 4.97 µM (active).

With `C=CCN(CC=C)C(=S)Nc1ccc2nsnc2c1` the IC50 [5] was > 66 µM (inactive), the IC50 [6] was > 66 µM (inactive) and the AC50 [7] was 15 µM (active). For the same compound, the IC50 [8] was > 128 µM (inactive).

In the case of `CN1CCC(N(C)S(=O)(=O)c2ccc(NC(=O)COc3ccc(F)cc3)cc2)CC1`, the EC50 [9] is reported as 0.835 µM (active), the EC50 [10] is reported as > 60 µM (not active) and the IC50 [2] is reported as 3.71 µM (active). For the same compound, the IC50 [3] was 3.53 µM (active).

In the case of `CC(=O)Nc1cc(-c2ccccc2)ccc1O`, the IC50 [2] is reported as 7.17 µM (active), the AC50 [11] is reported as 1.1 µM (active) and the IC50 [3] is reported as 16.5 µM (active).

In the case of `CCOc1cc(/C=C2/C(=O)N(c3ccccc3)N=C2C)ccc1OC(=O)c1ccco1`, the AC50 [12] is reported as 2.68 µM (active), the EC50 (Protein RecA) is reported as 1.64 µM (active) and the IC50 [8] is reported as 119 µM (inactive). For the same compound, the AC50 (Cytochrome P450 3A4) was 25.1 µM (inconclusive).

In the case of `COCC(C)N1C(=O)Cc2c1nc(N)c1c(N)nc(N3CCN(c4ccccc4F)CC3)c(C#N)c21` (stereo unspecified), the IC50 [1] is reported as > 50 µM (not active).
